Data as given in ChEMBL document CHEMBL4480416, “Inducing Secondary Metabolite Production by Co-culture of the Endophytic Fungus Phoma sp. and the Symbiotic Fungus Armillaria sp” (2019).
In brackets after ≈: the same amount, converted by molar mass. Activity calls are given as the source filed them. No cut-off for these calls is given here.

test system: Candida albicans; assay: Antifungal activity against Candida albicans at 0.5 to 256 ug/ml after 4 days by two-fold serial micro dilution method; format: functional, organism-based

| Molecule | Activity | MIC [µg/mL] |
| --- | --- | --- |
| CCCC[C@@H](O)[C@H](O)c1ccccc1O | inactive | – |
| CCC[C@H](O)C/C=C/[C@@H](O)CCCC(=O)OCCCCCNC(C)=O | inactive | – |
| NYSTATIN | – | 4 |
| CCC[C@H](O)C/C=C/[C@@H](O)CCCC(=O)OC[C@@H](O)CO | inactive | – |
| CCC[C@@H](O)[C@@H]1Oc2ccccc2[C@@H]1O | inactive | – |
| CCC[C@H](O)C/C=C/[C@@H](O)CCCC(=O)OC | inactive | – |

test system: MCF7; assay: Cytotoxicity against human MCF7 cells assessed as reduction in cell viability at 40 uM after 48 hrs by MTS assay; format: functional, cell-based

| Molecule | Activity |
| --- | --- |
| CCCC[C@@H](O)[C@H](O)c1ccccc1O | inactive |
| CCC[C@H](O)C/C=C/[C@@H](O)CCCC(=O)OCCCCCNC(C)=O | inactive |
| CCC[C@H](O)C/C=C/[C@@H](O)CCCC(=O)OC[C@@H](O)CO | inactive |
| CCC[C@@H](O)[C@@H]1Oc2ccccc2[C@@H]1O | inactive |
| CCC[C@H](O)C/C=C/[C@@H](O)CCCC(=O)OC | inactive |

test system: SW480; assay: Cytotoxicity against human SW480 cells assessed as reduction in cell viability at 40 uM after 48 hrs by MTS assay; format: functional, cell-based

| Molecule | Activity |
| --- | --- |
| CCCC[C@@H](O)[C@H](O)c1ccccc1O | inactive |
| CCC[C@H](O)C/C=C/[C@@H](O)CCCC(=O)OCCCCCNC(C)=O | inactive |
| CCC[C@H](O)C/C=C/[C@@H](O)CCCC(=O)OC[C@@H](O)CO | inactive |
| CCC[C@@H](O)[C@@H]1Oc2ccccc2[C@@H]1O | inactive |
| CCC[C@H](O)C/C=C/[C@@H](O)CCCC(=O)OC | inactive |

test system: Escherichia coli; assay: Antimicrobial activity against Escherichia coli at 0.5 to 256 ug/ml after 24 hrs by two-fold serial micro dilution method; format: functional

| Molecule | Activity | MIC [µg/mL] |
| --- | --- | --- |
| CCCC[C@@H](O)[C@H](O)c1ccccc1O | inactive | – |
| CCC[C@H](O)C/C=C/[C@@H](O)CCCC(=O)OCCCCCNC(C)=O | inactive | – |
| CCC[C@H](O)C/C=C/[C@@H](O)CCCC(=O)OC[C@@H](O)CO | inactive | – |
| NC[C@H]1O[C@H](O[C@H]2[C@H](O)[C@@H](O[C@H]3O[C@H](CO)[C@@H](O)[C@H](N)[C@H]3O)[C@H](N)C[C@@H]2N)[C@H](O)[C@@H](O)[C@@H]1O [KANAMYCIN] | – | 8 (≈ 16.5 µM) |
| CCC[C@@H](O)[C@@H]1Oc2ccccc2[C@@H]1O | inactive | – |
| CCC[C@H](O)C/C=C/[C@@H](O)CCCC(=O)OC | inactive | – |

test system: Staphylococcus aureus; assay: Antimicrobial activity against Staphylococcus aureus at 0.5 to 256 ug/ml after 24 hrs by two-fold serial micro dilution method; format: functional

| Molecule | Activity | MIC [µg/mL] |
| --- | --- | --- |
| CCCC[C@@H](O)[C@H](O)c1ccccc1O | inactive | – |
| CCC[C@H](O)C/C=C/[C@@H](O)CCCC(=O)OCCCCCNC(C)=O | inactive | – |
| CCC[C@H](O)C/C=C/[C@@H](O)CCCC(=O)OC[C@@H](O)CO | inactive | – |
| NC[C@H]1O[C@H](O[C@H]2[C@H](O)[C@@H](O[C@H]3O[C@H](CO)[C@@H](O)[C@H](N)[C@H]3O)[C@H](N)C[C@@H]2N)[C@H](O)[C@@H](O)[C@@H]1O [KANAMYCIN] | – | 4 (≈ 8.26 µM) |
| CCC[C@@H](O)[C@@H]1Oc2ccccc2[C@@H]1O | inactive | – |
| CCC[C@H](O)C/C=C/[C@@H](O)CCCC(=O)OC | inactive | – |

test system: HL-60; assay: Cytotoxicity against human HL60 cells assessed as reduction in cell viability at 40 uM after 48 hrs by MTS assay; format: functional, cell-based

| Molecule | Activity |
| --- | --- |
| CCCC[C@@H](O)[C@H](O)c1ccccc1O | inactive |
| CCC[C@H](O)C/C=C/[C@@H](O)CCCC(=O)OCCCCCNC(C)=O | inactive |
| CCC[C@H](O)C/C=C/[C@@H](O)CCCC(=O)OC[C@@H](O)CO | inactive |
| CCC[C@@H](O)[C@@H]1Oc2ccccc2[C@@H]1O | inactive |
| CCC[C@H](O)C/C=C/[C@@H](O)CCCC(=O)OC | inactive |

test system: Bacillus subtilis; assay: Antimicrobial activity against Bacillus subtilis at 0.5 to 256 ug/ml after 24 hrs by two-fold serial micro dilution method; format: functional

| Molecule | Activity | MIC [µg/mL] |
| --- | --- | --- |
| CCCC[C@@H](O)[C@H](O)c1ccccc1O | inactive | – |
| CCC[C@H](O)C/C=C/[C@@H](O)CCCC(=O)OCCCCCNC(C)=O | inactive | – |
| CCC[C@H](O)C/C=C/[C@@H](O)CCCC(=O)OC[C@@H](O)CO | inactive | – |
| NC[C@H]1O[C@H](O[C@H]2[C@H](O)[C@@H](O[C@H]3O[C@H](CO)[C@@H](O)[C@H](N)[C@H]3O)[C@H](N)C[C@@H]2N)[C@H](O)[C@@H](O)[C@@H]1O [KANAMYCIN] | – | 4 (≈ 8.26 µM) |
| CCC[C@@H](O)[C@@H]1Oc2ccccc2[C@@H]1O | inactive | – |
| CCC[C@H](O)C/C=C/[C@@H](O)CCCC(=O)OC | inactive | – |

test system: SMMC-7721; assay: Cytotoxicity against human SMMC7721 cells assessed as reduction in cell viability at 40 uM after 48 hrs by MTS assay; format: functional, cell-based

| Molecule | Activity |
| --- | --- |
| CCCC[C@@H](O)[C@H](O)c1ccccc1O | inactive |
| CCC[C@H](O)C/C=C/[C@@H](O)CCCC(=O)OCCCCCNC(C)=O | inactive |
| CCC[C@H](O)C/C=C/[C@@H](O)CCCC(=O)OC[C@@H](O)CO | inactive |
| CCC[C@@H](O)[C@@H]1Oc2ccccc2[C@@H]1O | inactive |
| CCC[C@H](O)C/C=C/[C@@H](O)CCCC(=O)OC | inactive |

test system: A549; assay: Cytotoxicity against human A549 cells assessed as reduction in cell viability at 40 uM after 48 hrs by MTS assay; format: functional, cell-based

| Molecule | Activity |
| --- | --- |
| CCCC[C@@H](O)[C@H](O)c1ccccc1O | inactive |
| CCC[C@H](O)C/C=C/[C@@H](O)CCCC(=O)OCCCCCNC(C)=O | inactive |
| CCC[C@H](O)C/C=C/[C@@H](O)CCCC(=O)OC[C@@H](O)CO | inactive |
| CCC[C@@H](O)[C@@H]1Oc2ccccc2[C@@H]1O | inactive |
| CCC[C@H](O)C/C=C/[C@@H](O)CCCC(=O)OC | inactive |
